Reference: patent US20250084112A1, “Chemical Compounds Useful for Inhibiting Nav1.8 Voltage-Gated Sodium Channels and Treating Nav1.8 Mediated Diseases” (GlaxoSmithKline Intellectual Property Development Limited, priority 2021, published 2025)
In brackets after ≈: the same amount, converted by molar mass. Where two headings read alike, the source gives them in different places.

Experiments:
human Nav1.8 = human Nav1.8 (Homo sapiens (Human), UniProt Q9Y5Y9); assay: QPatch 48 HTX electrophysiology, half inactivation state (V1/2) voltage protocol in HEK293-Nav1.8; type: cell-based; conditions: HEK293-Nav1.8, QPatch V1/2 protocol, P2 current; average if more than one run
Description: Human embryonic kidney 293 cells (HEK293) expressing human Nav1.8, human Navβ1 and human TREK1 (HEK293-Nav1.8) were grown at 37° C., 5% CO2 in 150 cm^2 flasks. HEK293-Nav1.8 were passaged every 2-3 days into T175 cell culture flasks when confluency reached 80-90%.
Pharmacological assessment of the compounds of the invention was performed using HEK293-Nav1.8 in combination with an assay developed on the QPatch 48 HTX electrophysiological system. HEK293-Nav1.8 were prepared on the day of use by removing culture media, washing in DPBS, adding Accutase (2 ml to cover the surface, aspirate 1 ml then 1.5 min at 37° C.) followed by addition of CHO-SFM II to stop the enzyme digestion and in order to obtain a suspension of 3×10^6 cell/mL.
Compound was prepared in an extracellular solution of the following composition: NaCl (145 mM), KCl (4 mM), CaCl2 (2 mM), MgCl2 (2 mM), HEPES (1 mM), Glucose (10 mM), pH 7.4 with NaOH Osmolality 300 mOsM/L. The intracellular solution was used of the following composition: CsF (115 mM), CsCl (20 mM), NaCl (5 mM), EGTA (10 mM), HEPES (10 mM), Sucrose (20 mM), pH 7.2 with CsOH Osmolality 310 mOsm/L.
Utilizing the voltage-clamp mode in the QPatch 48 HTX system a half inactivation state voltage protocol (V1/2) was used to determine pharmacological activity of compounds of the invention at Nav1.8 ion channels. A V1/2 protocol was utilized with the following voltage steps: a holding voltage of −100 mV was established followed by a 20 ms voltage step to 0 mV (P1), followed by an inactivating voltage step at −46 mV for 8 seconds, followed by a step to −100 mV for 20 ms, before a 20 ms step to 0 mV (P2) before returning to the holding voltage of −100 mV. This voltage protocol was repeated at a frequency of 0.07 Hz., current magnitude was quantified at the P2 step throughout the recording. Inhibition of the measured current amplitude with the compounds of the invention was analyzed by fitting a 6-8 point dose-response curve allowing determination of the fifty percent inhibition concentration (IC50). Within the QPatch HTX software, P2 current was normalized according to measurements made at baseline after compound and after positive reference compound and fit to the following equation: […]
To assess current run-down over the course of the experiment vehicle-only wells were utilized and the normalized current with vehicle-only (n.IVEH) was determined. To correct the compound response for run-down, the currents were corrected according the following formula: […]
Compounds of the invention and the corresponding parent compounds (see Table 1A for structures) were tested for activity against Nav1.8 sodium channels in the above assay in one or more experimental runs and the results are shown in Table 1 below. Potency of the compounds of the invention is reported as a pIC50 value. The pIC50 value is the negative log of the IC50 value, wherein the IC50 value is the half maximal inhibitory concentration measured in molar (M). Potency of the compounds of the invention is compared to the potency of the parent compound. For compounds tested in more than one experimental run, the pIC50 value is reported as an average.

[1] = Kinetic solubility measurement using Charged Aerosol Detector (CAD); type: physicochemical; conditions: phosphate buffered saline (PBS) pH 7.4, aqueous buffer, PBS pH 7.4, 1 hour at room temperature, from DMSO stock
Description: Kinetic solubility measurement using Charged Aerosol Detector (CAD). The aqueous kinetic solubility at pH 7.4 was determined by measuring the concentration of solute in solution after precipitation from DMSO stock solution. The DMSO stock solution was diluted 20-fold with phosphate buffered saline (PBS) pH 7.4 and the solubility of the compound was measured after 1 hour equilibration at room temperature by HPLC-CAD. Calibration standards of Ketoconazole and Primidone were prepared by serial dilutions in DMSO at concentrations ranging from 0.016 to 4.5 mg/ml to produce the calibration curve used to determine the solubility of the compounds as previously described in Max W. Robinson et al, Use of Calculated Physicochemical Properties to Enhance Quantitative Response When Using Charged Aerosol Detection, Anal. Chem., 2017, 89 (3), pp 1772-1777, which is herein incorporated by reference.

[2] = Rat IV/PO pharmacokinetic study (prodrug to parent conversion); type: in vivo, Han Wistar rats
Description: An in vivo rat pharmacokinetic study was conducted to determine whether the prodrug compounds of the invention are converted to the respective parent compound upon administration. The rat pharmacokinetic study was conducted with a crossover design on two study days with a one-day recovery period between each study day. Three male, dual catheterized (femoral vein and carotid artery) Han Wistar rats were used for the study. Each rat was also implanted with a gastric catheter for oral dose administration. Rats were dosed at 1 mg/kg by a 60 minute intravenous (IV) infusion (femoral vein cannula), then subsequently oral dosed at 2 mg/kg via the gastric cannula, with 48 hours between dosing sessions. Dose solutions of the compound of Example 3 were prepared in 20% Cavitron/5% DMSO/75% water (IV) and in 6% Cavitron/5% DMSO/89% water (PO) without pH adjustment. The dose solutions were filtered using a 0.22 μ filter. The pH of the final dosing solutions was 6.0.
During the intravenous study leg, blood samples were collected from the carotid artery catheter at target times of 15, 30, 60 (end of infusion), 65, 75, 90, 120, 240, 360, 480, 720, and 1440 minutes following the initiation of the intravenous infusion of the compound of Example 3. During the oral study leg, blood samples were collected prior to dosing and at target times of 15, 30, 60, 90, 120, 180, 240, 360, 480, 720, and 1440 minutes following oral administration. Blood samples, 100 μL, were mixed with 100 μL phosphatase inhibitor, a 50 μL aliquot of the blood and inhibitor mixture was transferred to a non-heparinized tube and stored at approximately −80° C. until analyzed. The concentrations in the filtered dose solutions were confirmed by preparing stepwise dilutions first into 50% aqueous acetonitrile with 0.1% formic acid then into heparinized male Wistar Han blood:inhibitor to achieve determined nominal concentrations. Triplicate 50 μL aliquots were removed and were frozen and stored at approximately […] until analyzed by LC-MS/MS as described below.
LC-MS/MS was used to quantify the compound of Example 3 and the corresponding parent compound of Example 3A in the biological samples generated in the above described in vivo study. Samples were prepared by protein precipitation followed by LC-MS/MS analysis employing positive-mode ionization against a set of calibration standards for the compounds prepared in the same matrix. Pharmacokinetic parameters for the study was derived from the concentration versus time profiles. Key pharmacokinetic parameters such as AUC0-∞ (extrapolated area under the blood concentration-time curve), AUC0-t (area under the blood concentration-time curve to the last time point with quantifiable drug), Cmax (maximum concentration), Tmax (time Cmax is achieved), CL (systemic blood clearance), Vdss (steady-state volume of distribution), MRT (mean residence time), and t1/2(half-life) were determined for the compound of Example 3. The key pharmacokinetic parameters such as AUC0-∞, AUC0-t, Cmax, Tmax, MRT, and t1/2 (half-life) were determined for the parent compound Example 3A. Descriptive statistical data of pharmacokinetic parameters were calculated, including the mean and standard deviation (SD) using Microsoft Excel.
The data are shown below in Tables 3A and 3B. Data are reported as mean±SD (N=3).

[3] = average for Examples 1 and 3, one run for 2 and 4, read-out: CAD solubility (Prodrug Compounds of the Invention)
[4] = male, Han Wistar, whole blood, prodrug in blood, Example 3 1 mg/kg 60 minute intravenous infusion, mean±SD (N=3)
[5] = average of multiple runs, read-out: CAD solubility (Parent Compounds)

Chain of human Nav1.8 (Q9Y5Y9 whole entry): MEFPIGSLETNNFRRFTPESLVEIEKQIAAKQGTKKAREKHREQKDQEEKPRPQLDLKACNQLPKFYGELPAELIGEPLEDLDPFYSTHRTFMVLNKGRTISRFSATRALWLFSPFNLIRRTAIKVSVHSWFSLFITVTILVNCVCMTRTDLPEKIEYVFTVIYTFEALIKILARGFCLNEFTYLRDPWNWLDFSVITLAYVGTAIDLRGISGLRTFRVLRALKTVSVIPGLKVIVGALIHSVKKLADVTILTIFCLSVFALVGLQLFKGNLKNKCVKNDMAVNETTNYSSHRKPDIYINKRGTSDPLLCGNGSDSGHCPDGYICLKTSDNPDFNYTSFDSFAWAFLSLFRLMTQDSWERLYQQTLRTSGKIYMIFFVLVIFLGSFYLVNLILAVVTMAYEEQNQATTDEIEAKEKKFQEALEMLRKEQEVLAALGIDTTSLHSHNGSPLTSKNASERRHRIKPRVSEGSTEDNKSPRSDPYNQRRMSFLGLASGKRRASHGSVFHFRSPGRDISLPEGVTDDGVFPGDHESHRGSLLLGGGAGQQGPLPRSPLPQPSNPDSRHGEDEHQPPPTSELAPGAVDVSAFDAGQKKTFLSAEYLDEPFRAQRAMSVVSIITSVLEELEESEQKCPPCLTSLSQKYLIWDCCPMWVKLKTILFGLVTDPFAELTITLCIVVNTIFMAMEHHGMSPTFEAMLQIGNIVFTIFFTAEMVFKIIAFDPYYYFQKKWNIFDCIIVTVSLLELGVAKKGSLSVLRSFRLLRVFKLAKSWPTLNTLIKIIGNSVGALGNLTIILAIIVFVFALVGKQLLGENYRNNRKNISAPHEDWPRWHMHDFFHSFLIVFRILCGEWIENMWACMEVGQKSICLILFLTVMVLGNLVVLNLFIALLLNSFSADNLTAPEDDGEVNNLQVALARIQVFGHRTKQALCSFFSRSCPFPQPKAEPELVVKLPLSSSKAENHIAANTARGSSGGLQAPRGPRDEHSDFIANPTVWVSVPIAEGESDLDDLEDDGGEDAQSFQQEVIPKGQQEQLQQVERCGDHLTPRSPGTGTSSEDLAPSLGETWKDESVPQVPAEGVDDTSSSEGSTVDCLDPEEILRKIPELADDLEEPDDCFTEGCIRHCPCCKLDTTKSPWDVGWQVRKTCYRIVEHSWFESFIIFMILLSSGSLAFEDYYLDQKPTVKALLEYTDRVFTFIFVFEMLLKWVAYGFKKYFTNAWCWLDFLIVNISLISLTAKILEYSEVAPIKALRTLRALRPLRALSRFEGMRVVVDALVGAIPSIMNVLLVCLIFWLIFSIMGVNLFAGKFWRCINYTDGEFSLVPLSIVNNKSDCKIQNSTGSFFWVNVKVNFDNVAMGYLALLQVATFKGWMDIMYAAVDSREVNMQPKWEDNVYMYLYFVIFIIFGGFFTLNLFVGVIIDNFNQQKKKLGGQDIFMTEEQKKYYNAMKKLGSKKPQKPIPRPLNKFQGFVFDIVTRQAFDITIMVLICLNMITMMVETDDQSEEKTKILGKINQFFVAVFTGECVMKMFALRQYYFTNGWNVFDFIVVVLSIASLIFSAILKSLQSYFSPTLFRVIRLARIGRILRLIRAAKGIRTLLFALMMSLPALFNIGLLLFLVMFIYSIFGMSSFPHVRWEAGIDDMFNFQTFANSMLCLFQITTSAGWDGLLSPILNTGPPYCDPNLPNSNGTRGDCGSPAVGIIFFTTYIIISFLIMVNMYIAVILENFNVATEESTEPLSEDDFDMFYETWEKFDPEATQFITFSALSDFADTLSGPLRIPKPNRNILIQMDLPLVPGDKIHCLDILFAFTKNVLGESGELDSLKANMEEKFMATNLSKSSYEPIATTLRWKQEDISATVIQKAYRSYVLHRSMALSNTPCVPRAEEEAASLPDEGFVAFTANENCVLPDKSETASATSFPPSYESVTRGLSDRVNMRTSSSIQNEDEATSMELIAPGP

With Cc1cc(F)ccc1N1CN(c2ccc(=O)n(COP(=O)(O)O)c2C)C(=O)c2cc(C(F)(F)F)ccc21 [Example 1, (5-(1-(4-Fluoro-2-methylphenyl)-4-oxo-6-(trifluoromethyl)-1,4-dihydroquinazolin-3(2H)-yl)-6-methyl-2-oxopyridin-1(2H)-yl)methyl dihydrogen phosphate] the “[Nav1.8] pIC50 (Compounds of the Invention)” value (human Nav1.8) was 6.8 and the solubility at 1 h [1, 3] was greater than 260 µg/mL.
In the case of Cc1cc(F)ccc1N1CN(c2ccc(=O)n(COP(=O)(O)O)c2C)C(=O)c2ccc(C(F)(F)F)cc21 [Example 2, (5-(1-(4-fluoro-2-methylphenyl)-4-oxo-7-(trifluoromethyl)-1,4-dihydroquinazolin-3(2H)-yl)-6-methyl-2-oxopyridin-1(2H)-yl)methyl dihydrogen phosphate], the “[Nav1.8] pIC50 (Compounds of the Invention)” value (human Nav1.8) is reported as 6.6 and the solubility at 1 h [1, 3] is reported as greater than 193 µg/mL.
In the case of Cc1cc(F)ccc1N1CN(c2ccc(=O)n(COP(=O)(O)O)c2C)C(=O)c2cc(Cl)ccc21 [Example 3, (5-(6-chloro-1-(4-fluoro-2-methylphenyl)-4-oxo-1,4-dihydroquinazolin-3(2H)-yl)-6-methyl-2-oxopyridin-1(2H)-yl)methyl dihydrogen phosphate], the AUC(0-inf) [2, 4] is reported as 250 ± 30 ng·h/mL, the AUC(0-t) [2, 4] is reported as 240 ± 40 ng·h/mL and the Cmax [2, 4] is reported as 260 ± 24 ng/mL. For the same compound, the clearance ([2]; male, Han Wistar, whole blood, prodrug, systemic blood clearance, Example 3 1 mg/kg 60 minute intravenous infusion, mean±SD (N=3)) was 58 ± 9 mL/min/kg, the “quantifiable concentrations following oral administration” value ([2]; prodrug in blood, Example 3 2 mg/kg oral via gastric cannula, text runs over cells r6-r10) was “There were no” and the “[Nav1.8] pIC50 (Compounds of the Invention)” value (human Nav1.8) was 6.9. For the same compound, the solubility at 1 h [1, 3] was 102 µg/mL.
With Cc1cc(OC(F)(F)F)ccc1N1CN(c2ccc(=O)n(COP(=O)(O)O)c2C)C(=O)c2cc(C(F)(F)F)cnc21 [Example 4, (6-methyl-5-(1-(2-methyl-4-(trifluoromethoxy)phenyl)-4-oxo-6-(trifluoromethyl)-1,4-dihydropyrido[2,3-d]pyrimidin-3(2H)-yl)-2-oxopyridin-1(2H)-yl)methyl dihydrogen phosphate] the “[Nav1.8] pIC50 (Compounds of the Invention)” value (human Nav1.8) was 6.1 and the solubility at 1 h [1, 3] was 181 µg/mL.
In the case of Cc1cc(F)ccc1N1CN(c2ccc(=O)[nH]c2C)C(=O)c2cc(C(F)(F)F)ccc21 [Parent Compound 1A, 1-(4-fluoro-2-methylphenyl)-3-(2-methyl-6-oxo-1,6-dihydropyridin-3-yl)-6-(trifluoromethyl)-2,3-dihydroquinazolin-4(1H)-one], the “[Nav1.8] pIC50 (Parent Compounds)” value (human Nav1.8) is reported as 8 and the solubility at 1 h [1, 5] is reported as 48 µg/mL (≈ 111 µM).
With Cc1cc(F)ccc1N1CN(c2ccc(=O)[nH]c2C)C(=O)c2ccc(C(F)(F)F)cc21 [Parent Compound 2A, 1-(4-fluoro-2-methylphenyl)-3-(2-methyl-6-oxo-1,6-dihydropyridin-3-yl)-7-(trifluoromethyl)-2,3-dihydroquinazolin-4(1H)-one] the solubility at 1 h [1, 5] was 51 µg/mL (≈ 118 µM).
Cc1cc(F)ccc1N1CN(c2ccc(=O)[nH]c2C)C(=O)c2cc(Cl)ccc21 [Parent Compound 3A, 6-chloro-1-(4-fluoro-2-methylphenyl)-3-(2-methyl-6-oxo-1,6-dihydropyridin-3-yl)-2,3-dihydroquinazolin-4(1H)-one] gave a solubility at 1 h [1, 5] of 54 µg/mL (≈ 136 µM).
In the case of Cc1cc(OC(F)(F)F)ccc1N1CN(c2ccc(=O)[nH]c2C)C(=O)c2cc(C(F)(F)F)cnc21 [Parent Compound 4A, 1-(2-methyl-4-(trifluoromethoxy)phenyl)-3-(2-methyl-6-oxo-1,6-dihydropyridin-3-yl)-6-(trifluoromethyl)-2,3-dihydropyrido[2,3-d]pyrimidin-4(1H)-one], the “[Nav1.8] pIC50 (Parent Compounds)” value (human Nav1.8) is reported as 7.5 and the solubility at 1 h [1, 5] is reported as 87 µg/mL (≈ 175 µM).
